For 22 molecules, IC50 results are on record in BindingDB's records for doi:10.1021/np200036v (National Engineering Research Center For The Emergency …, 2020).

Each structure is given as a SMILES string.

The target in test [1] is Receptor-type tyrosine-protein phosphatase beta (Homo sapiens, UniProt P23467). Nature of the test: Inhibition of recombinant human PTPbeta using DiFMUP as substrate preincubated for 10 mins followed by substrate addition and measured after 2 hrs.
Test [2] has as its target T1, Tyrosine-protein phosphatase non-receptor type 1 (Homo sapiens, UniProt P18031).
T1 sequence (P18031 whole entry): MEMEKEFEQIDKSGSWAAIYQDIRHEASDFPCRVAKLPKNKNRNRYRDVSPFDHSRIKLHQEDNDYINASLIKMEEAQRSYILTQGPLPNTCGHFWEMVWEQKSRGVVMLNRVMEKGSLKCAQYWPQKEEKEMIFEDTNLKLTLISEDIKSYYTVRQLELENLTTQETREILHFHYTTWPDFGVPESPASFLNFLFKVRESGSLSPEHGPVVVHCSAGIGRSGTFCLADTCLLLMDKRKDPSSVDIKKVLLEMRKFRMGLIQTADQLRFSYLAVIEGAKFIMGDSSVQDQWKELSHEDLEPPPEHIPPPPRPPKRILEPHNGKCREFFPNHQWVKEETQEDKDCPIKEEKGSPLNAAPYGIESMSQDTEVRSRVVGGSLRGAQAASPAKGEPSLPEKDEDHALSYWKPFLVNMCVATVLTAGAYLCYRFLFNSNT
In words: Inhibition of recombinant PTP1B (unknown origin).

Test [3] has as its target Receptor-type tyrosine-protein phosphatase F (Homo sapiens, UniProt P10586). Nature of the test: Inhibition of recombinant LAR (unknown origin).
The target of test [4] is T2, Tyrosine-protein phosphatase non-receptor type 11 (Homo sapiens, UniProt Q06124).
T2 sequence (Q06124 whole entry): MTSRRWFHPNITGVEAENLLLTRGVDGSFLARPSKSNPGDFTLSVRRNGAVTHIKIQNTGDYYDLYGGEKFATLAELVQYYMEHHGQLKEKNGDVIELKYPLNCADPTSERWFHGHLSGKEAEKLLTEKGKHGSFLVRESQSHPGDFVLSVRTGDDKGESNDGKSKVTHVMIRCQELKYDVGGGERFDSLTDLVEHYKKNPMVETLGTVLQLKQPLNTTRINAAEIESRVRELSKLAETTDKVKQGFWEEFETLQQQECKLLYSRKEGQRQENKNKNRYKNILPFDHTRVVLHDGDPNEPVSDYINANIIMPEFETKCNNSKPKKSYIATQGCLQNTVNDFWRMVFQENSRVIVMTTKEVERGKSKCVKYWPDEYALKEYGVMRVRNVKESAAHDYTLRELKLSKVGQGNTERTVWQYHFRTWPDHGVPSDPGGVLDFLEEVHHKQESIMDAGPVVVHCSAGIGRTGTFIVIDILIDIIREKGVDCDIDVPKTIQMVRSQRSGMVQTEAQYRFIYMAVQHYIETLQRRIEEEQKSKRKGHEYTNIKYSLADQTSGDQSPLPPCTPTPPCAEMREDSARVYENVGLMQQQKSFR
In words: Inhibition of recombinant SHP2 (unknown origin).

Test [5] deals with T3, Tyrosine-protein phosphatase non-receptor type 2 (Homo sapiens, UniProt P17706).
T3 sequence (P17706 whole entry): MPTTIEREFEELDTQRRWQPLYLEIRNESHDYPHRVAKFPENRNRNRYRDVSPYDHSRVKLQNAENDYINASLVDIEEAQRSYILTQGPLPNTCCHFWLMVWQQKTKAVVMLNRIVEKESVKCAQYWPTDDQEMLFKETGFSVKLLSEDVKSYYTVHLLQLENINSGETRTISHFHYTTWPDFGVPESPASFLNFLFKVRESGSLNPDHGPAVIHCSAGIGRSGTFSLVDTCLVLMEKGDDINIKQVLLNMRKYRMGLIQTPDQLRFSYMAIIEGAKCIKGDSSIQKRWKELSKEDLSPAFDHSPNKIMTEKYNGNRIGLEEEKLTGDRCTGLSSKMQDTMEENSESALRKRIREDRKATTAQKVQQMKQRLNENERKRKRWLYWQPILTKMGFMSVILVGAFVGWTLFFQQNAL
Nature of the test: Inhibition of recombinant TC-PTP (unknown origin).

Chain of Receptor-type tyrosine-protein phosphatase F (P10586 whole entry): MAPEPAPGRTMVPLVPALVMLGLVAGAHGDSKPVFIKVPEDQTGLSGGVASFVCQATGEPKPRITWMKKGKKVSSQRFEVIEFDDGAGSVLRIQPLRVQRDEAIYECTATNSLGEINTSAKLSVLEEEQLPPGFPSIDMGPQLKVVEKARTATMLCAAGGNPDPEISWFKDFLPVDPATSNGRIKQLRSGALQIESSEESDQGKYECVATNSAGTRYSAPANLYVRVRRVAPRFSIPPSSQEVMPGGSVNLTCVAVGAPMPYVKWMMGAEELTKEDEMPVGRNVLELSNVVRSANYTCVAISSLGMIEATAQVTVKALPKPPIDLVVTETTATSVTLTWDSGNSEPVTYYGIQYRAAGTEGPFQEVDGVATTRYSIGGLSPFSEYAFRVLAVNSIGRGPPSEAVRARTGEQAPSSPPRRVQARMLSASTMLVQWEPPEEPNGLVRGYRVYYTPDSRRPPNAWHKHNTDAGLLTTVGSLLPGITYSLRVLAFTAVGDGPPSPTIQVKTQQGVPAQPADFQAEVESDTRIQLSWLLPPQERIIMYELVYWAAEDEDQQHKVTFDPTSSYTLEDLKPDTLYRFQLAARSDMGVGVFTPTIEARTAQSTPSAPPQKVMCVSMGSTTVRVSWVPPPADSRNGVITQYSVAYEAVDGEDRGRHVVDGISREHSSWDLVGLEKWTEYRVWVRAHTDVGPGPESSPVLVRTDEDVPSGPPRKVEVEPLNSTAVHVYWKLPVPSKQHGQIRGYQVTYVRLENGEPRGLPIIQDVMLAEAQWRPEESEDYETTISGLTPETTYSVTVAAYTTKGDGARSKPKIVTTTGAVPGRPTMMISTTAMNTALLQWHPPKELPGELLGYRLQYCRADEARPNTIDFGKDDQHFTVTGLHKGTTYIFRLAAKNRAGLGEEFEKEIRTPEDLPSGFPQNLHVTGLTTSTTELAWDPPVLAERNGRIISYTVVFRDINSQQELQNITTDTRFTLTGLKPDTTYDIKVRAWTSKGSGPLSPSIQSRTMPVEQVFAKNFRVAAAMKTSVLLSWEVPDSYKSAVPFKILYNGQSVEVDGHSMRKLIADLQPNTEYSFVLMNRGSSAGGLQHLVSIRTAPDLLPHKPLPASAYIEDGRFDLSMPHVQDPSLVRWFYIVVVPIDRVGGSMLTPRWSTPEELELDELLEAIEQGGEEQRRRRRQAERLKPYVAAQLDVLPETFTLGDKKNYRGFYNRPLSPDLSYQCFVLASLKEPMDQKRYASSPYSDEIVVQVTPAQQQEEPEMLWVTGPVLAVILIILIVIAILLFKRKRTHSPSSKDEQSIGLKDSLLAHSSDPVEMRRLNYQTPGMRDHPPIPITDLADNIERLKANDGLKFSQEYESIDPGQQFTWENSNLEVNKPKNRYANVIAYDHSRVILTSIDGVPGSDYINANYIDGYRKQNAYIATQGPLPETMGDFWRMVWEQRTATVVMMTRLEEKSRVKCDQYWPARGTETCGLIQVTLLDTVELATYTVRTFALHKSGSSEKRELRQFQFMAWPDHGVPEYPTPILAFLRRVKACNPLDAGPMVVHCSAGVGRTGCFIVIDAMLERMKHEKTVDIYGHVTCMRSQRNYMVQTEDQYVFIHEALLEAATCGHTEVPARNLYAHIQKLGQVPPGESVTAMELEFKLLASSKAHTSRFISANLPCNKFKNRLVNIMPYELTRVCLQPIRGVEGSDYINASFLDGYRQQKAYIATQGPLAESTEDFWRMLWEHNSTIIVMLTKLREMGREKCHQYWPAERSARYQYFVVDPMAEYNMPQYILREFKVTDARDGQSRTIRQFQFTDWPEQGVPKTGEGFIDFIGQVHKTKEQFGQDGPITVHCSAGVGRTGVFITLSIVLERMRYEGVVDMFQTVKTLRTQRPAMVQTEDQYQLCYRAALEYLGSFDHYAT
Chain of Receptor-type tyrosine-protein phosphatase beta (P23467 whole entry): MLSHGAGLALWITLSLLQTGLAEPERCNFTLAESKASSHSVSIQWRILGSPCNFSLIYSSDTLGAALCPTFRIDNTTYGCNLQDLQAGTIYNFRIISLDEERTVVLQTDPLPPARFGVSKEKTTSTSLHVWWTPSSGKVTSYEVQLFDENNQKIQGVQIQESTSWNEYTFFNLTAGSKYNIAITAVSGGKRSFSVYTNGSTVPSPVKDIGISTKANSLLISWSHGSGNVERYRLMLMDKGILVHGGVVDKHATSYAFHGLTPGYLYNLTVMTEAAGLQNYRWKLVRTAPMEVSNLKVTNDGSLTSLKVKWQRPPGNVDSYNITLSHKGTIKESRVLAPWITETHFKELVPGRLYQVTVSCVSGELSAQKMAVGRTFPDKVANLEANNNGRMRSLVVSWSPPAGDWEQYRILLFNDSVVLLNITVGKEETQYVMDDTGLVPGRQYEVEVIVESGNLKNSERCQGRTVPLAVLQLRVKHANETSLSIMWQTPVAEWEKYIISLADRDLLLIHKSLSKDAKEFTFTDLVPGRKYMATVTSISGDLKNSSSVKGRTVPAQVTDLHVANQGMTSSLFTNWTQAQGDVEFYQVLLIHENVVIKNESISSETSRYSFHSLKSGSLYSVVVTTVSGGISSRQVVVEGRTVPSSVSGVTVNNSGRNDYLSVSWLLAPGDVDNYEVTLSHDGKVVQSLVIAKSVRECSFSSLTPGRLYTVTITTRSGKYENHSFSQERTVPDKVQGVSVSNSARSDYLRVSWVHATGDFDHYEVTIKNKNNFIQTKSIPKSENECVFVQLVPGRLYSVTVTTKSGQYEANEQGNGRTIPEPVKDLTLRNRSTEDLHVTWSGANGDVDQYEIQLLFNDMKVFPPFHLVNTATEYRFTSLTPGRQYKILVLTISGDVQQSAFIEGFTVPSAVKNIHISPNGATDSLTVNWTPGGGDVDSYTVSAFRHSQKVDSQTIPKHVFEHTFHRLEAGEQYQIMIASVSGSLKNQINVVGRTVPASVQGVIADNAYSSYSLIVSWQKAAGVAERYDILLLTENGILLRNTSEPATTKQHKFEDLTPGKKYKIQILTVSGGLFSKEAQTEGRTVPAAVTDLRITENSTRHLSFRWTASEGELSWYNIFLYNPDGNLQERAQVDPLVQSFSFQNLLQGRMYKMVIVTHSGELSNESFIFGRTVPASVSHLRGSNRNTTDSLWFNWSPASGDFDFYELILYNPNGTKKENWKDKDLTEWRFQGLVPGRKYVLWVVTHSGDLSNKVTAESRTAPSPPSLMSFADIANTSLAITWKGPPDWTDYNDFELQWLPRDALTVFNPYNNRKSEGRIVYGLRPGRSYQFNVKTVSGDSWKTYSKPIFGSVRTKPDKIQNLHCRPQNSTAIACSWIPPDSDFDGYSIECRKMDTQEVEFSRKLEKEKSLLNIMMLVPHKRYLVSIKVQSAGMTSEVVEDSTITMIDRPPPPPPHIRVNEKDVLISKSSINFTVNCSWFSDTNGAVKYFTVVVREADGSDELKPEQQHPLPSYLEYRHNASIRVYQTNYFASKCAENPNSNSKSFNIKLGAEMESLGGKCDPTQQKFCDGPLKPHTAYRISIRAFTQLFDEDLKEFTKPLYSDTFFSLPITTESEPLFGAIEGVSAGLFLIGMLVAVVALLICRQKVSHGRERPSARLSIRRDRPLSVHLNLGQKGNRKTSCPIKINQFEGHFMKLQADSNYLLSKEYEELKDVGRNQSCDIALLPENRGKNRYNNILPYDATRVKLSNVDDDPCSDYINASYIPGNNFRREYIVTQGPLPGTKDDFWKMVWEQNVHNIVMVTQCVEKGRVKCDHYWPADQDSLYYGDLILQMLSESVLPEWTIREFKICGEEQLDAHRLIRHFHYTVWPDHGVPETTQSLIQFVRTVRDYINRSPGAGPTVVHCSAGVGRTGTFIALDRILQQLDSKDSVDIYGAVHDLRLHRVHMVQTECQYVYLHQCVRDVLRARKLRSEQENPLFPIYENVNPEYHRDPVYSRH

For `O=S(=O)(O)Nc1ccc(CN(c2nc(-c3ccccc3)cs2)S(=O)(=O)c2cccc(Cl)c2)cc1`, the IC50 in test [1] is 1.32 µM.
Take `COc1ccc(S(=O)(=O)N(Cc2ccc(NS(=O)(=O)O)cc2)c2nc(-c3cccs3)cs2)cc1`: in test [1], the IC50 was 1.81 µM.
On the same count and under the same terms, in the case of `COC(=O)N[C@@H](Cc1ccccc1)C(=O)N(Cc1ccc(NS(=O)(=O)O)cc1)c1nc(-c2ccccc2)cs1` it was 3.46 µM; in that of `O=C(c1ccccc1Cl)N(Cc1ccc(NS(=O)(=O)O)cc1)c1nc(-c2ccccc2)cs1`, 4.67 µM.
Regarding `COc1cccc(S(=O)(=O)N(Cc2ccc(NS(=O)(=O)O)cc2)c2nc(-c3ccccc3)cs2)c1`, the concentration for half-maximal inhibition (IC50) stood at 20.5 µM in test [2]; 0.968 µM in test [1]; 34.8 µM in test [3]; 6.41 µM in test [4]; 31.3 µM in test [5].
For `O=C(c1ccccc1Cl)N(Cc1ccc(NS(=O)(=O)O)cc1)c1nc(-c2cccs2)cs1`, the IC50 in test [1] was 5.94 µM.
Turning to `O=C(c1cccnc1Cl)N(Cc1ccc(NS(=O)(=O)O)cc1)c1nc(-c2ccccc2)cs1`, the half-maximal inhibitory concentration (IC50) in test [2] worked out at 22.2 µM; in test [1], 2.98 µM; in test [3] it was 42.3 µM; in test [4], 19.6 µM; in test [5], 32.8 µM.
For the molecule `O=C(Cc1ccc(Br)c(F)c1)N(Cc1ccc(NS(=O)(=O)O)cc1)c1ccccc1`, the IC50 in test [1] is 1.78 µM.
With `COc1ccc(S(=O)(=O)N(Cc2ccc(NS(=O)(=O)O)cc2)c2nc(-c3ccccc3)cs2)cc1`, the IC50 in test [1] is 2.07 µM.
For the molecule `CC(C)(C)OC(=O)N1CCC(C(=O)N(Cc2ccc(NS(=O)(=O)O)cc2)c2ccccc2)CC1`, the IC50 came to 123 µM in test [2]; 1.45 µM in test [1]; 112 µM in test [3]; 24.7 µM in test [4]; 102 µM in test [5].
`O=C(Cc1cccc(F)c1)N(Cc1ccc(NS(=O)(=O)O)cc1)c1nc(-c2ccccc2)cs1`: the IC50 in test [1] was 4.1 µM.
On to `COc1cccc(S(=O)(=O)N(Cc2ccc(NS(=O)(=O)O)cc2)c2nc(-c3cccs3)cs2)c1`, for which, in test [1], the 50% inhibitory concentration (IC50) was 1.41 µM.
The same measure, in the same setting: next, `CC(C)(C)OC(=O)N1CCC(C(=O)N(Cc2ccc(NS(=O)(=O)O)cc2)c2nc(-c3ccccc3)cs2)CC1`: 6.4 µM.
For `O=[N+]([O-])c1ccc(CNc2ccccc2)cc1`, the IC50 came to 15.7 µM in test [2], 76.4 µM in test [3], 55.3 µM in test [4] and 20.1 µM in test [5].
As for `O=C(COc1ccc(Cl)cc1Cl)N(Cc1ccc(NS(=O)(=O)O)cc1)c1ccccc1`, in test [1], the IC50 is 1.68 µM.
For `O=S(=O)(O)Nc1ccc(CN(c2nc(-c3ccccc3)cs2)S(=O)(=O)c2cccc(F)c2)cc1`, in test [1], the half-maximal inhibitory concentration (IC50) came to 1.24 µM.
The same measure, in the same setting: next, `COC(=O)N[C@@H](Cc1ccccc1)C(=O)N(Cc1ccc(NS(=O)(=O)O)cc1)c1ccccc1`: 3.42 µM.
On the same count and under the same terms, in the case of `O=S(=O)(O)Nc1ccc(CN(c2nc(-c3cccs3)cs2)S(=O)(=O)c2cccc(F)c2)cc1` it was 1.07 µM; in that of `COC(=O)N[C@@H](Cc1ccccc1)C(=O)N(Cc1ccc(NS(=O)(=O)O)cc1)c1nc(-c2cccs2)cs1`, 6.61 µM; in that of `O=C(Cc1cccc(F)c1)N(Cc1ccc(NS(=O)(=O)O)cc1)c1ccccc1`, 1.72 µM.
On the same count and under the same terms, in the case of `O=S(=O)(O)Nc1ccc(CN(c2nc(-c3cccs3)cs2)S(=O)(=O)c2cccc(Cl)c2)cc1` it was 1.75 µM.
As for `O=S(=O)(O)Nc1ccc(CNc2nc(-c3cccs3)cs2)cc1`, the concentration for half-maximal inhibition (IC50) in test [2] is greater than 250 µM; in test [1], 0.995 µM; in test [3], 130 µM; in test [4], 25.6 µM; in test [5] it was greater than 250 µM.

One may read the IC50 as the concentration that gives 50% inhibition.
